Experimental data taken from patent publication US12162874B2, “Peptidomimetic-based antibody surrogate for HER2” (University of South Florida, priority 2021, dated 2024).
“And” between values parts separate entries of the source, which are not always exact repeats. Equal entries are not always repeated. “Also recorded” adds a separate entry of the source.

Experiments:
SKBR3 tumor xenograft = experiment: Antitumor study in SKBR3 xenograft nude mice, tumor volume; assay type: in vivo, mouse; details: for tumor volume after the last drug injection on day 12: after end of dosing, until day 24
Description: Male BALB/c nude mice, 4-6 weeks old, were provided by the Shanghai Bikai Experimental Animal Center, with the license number SOXK (Hu) 2008-0016, and maintained under specific-pathogen-free conditions.
SKBR3 cells were harvested, resuspended in PBS, and injected subcutaneously into 4-6 weeks old Male BALB/c nude mice. […] Mice were injected through the intraperitoneal every two days for seven injections. 12 days after injection, the mice in each group were killed, and the tumors were removed for examination. The tumor volumes were determined by measuring length (1) and width (w) and calculating volume (V=lw^2/2).

P-HER2 [1] = experiment: Western blot of HER2 phosphorylation in SKBR3 cells; assay type: cell-based, human; details: for inhibition of HER2 phosphorylation (in words): SKBR3 cell lysates, western blot; for expression of P-HER2: 10 μM
Description: (§1) SKBR3 cells were seeded into a 6-well plate at a concentration of 1×10^5 cells/well. After 12 h attachment at 37° C. and 5% CO2, the cells were starved overnight in serum-reduced McCoy's 5A Medium followed by treatment with different concentration of M-3-6 or M-3-6-D for 4 h, and then washed with ice-cold PBS and resuspended in ice-cold RIPA buffer supplemented with Halt Protease and Phosphatase Inhibitor Cocktail. Subsequently, the cells were incubated on ice for 10 min and centrifuged at 14,000×g at 4° C. for 10 min. An equal amount of protein was run on 4-12% Bis-Tris gels, transferred to polyvinylidene difluoride membranes (Millipore) and western blotted with anti-phosphorylated HER2, anti-phosphorylated AKT, anti-phosphorylated ERK and GAPDH. The experiments were conducted in triplicates and repeated for three times.

[2] = i.p. every two days for two weeks
Description: SKBR3 cells were harvested, resuspended in PBS, and injected subcutaneously into 4-6 weeks old Male BALB/c nude mice. […] Mice were injected through the intraperitoneal every two days for seven injections.

HER2 ECD = molecular target: T1, HER2 ECD (Homo sapiens, UniProt P04626); experiment: Surface plasmon resonance (SPR) binding to HER2
T1 construct: Fc (human IgG Fc); purchased Creative BioMart
T1 sequence (P04626 23-652): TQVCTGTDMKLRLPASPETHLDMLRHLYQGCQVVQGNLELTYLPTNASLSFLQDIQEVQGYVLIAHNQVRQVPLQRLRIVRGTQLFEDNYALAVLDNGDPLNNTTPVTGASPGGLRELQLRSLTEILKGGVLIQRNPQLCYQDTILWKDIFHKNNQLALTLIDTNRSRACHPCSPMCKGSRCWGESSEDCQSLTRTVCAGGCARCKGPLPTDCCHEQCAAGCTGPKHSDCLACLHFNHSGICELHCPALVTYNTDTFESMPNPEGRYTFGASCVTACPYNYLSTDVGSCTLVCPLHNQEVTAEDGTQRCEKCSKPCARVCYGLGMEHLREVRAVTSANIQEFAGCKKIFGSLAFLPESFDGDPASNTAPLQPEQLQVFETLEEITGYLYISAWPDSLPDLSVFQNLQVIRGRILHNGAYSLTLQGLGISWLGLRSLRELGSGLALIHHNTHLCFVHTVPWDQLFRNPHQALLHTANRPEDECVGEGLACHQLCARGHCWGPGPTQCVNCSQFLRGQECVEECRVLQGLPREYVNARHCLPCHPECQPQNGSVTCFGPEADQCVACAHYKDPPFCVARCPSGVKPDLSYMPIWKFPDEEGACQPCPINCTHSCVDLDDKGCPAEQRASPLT

P-HER2 [3] = experiment: Immunohistochemical staining of SKBR3 tumor sections; assay type: in vivo, mouse; details: tumors resected after sacrifice
Description: For the immunohistochemical analysis, the hydrated paraffin section was incubated in a blocking solution (10% donkey serum +5% nonfat dry milk +4% BSA +0.1% Triton X-100) for 10 min, and then incubated at 4° C. overnight with anti-P-HER2, P-AKT, P-ERK. After washing with PBS, the sections were incubated with diluted (1:200) biotinylated secondary antibody for 30 min. Subsequently, the sections were washed again in PBS and incubated for 30 min with the preformed avidin-horseradish peroxidase macromolecular complex. Development of peroxidase reaction was achieved by incubation in 0.01% 3, 3-diaminobenzidine tetrahydrochloride (DAB) in PBS containing 0.01% hydrogen peroxide for approximately 5 min at room temperature. Sections were then washed thoroughly in tap water, counterstained in haematoxylin, dehydrated in absolute alcohol, cleared in xylene and mounted in synthetic resin for microscopic examination.

pronase = details: 0.1 mg/mL pronase, 100 mM ammonium bicarbonate buffer, 37° C., 24 h
Description: Then, the reaction mixtures were concentrated in a speed vacuum to remove water and ammonium bicarbonate. The resulting residues were re-dissolved in H2O/MeCN and analyzed on a Waters analytical HPLC system.

P-ERK = experiment: Western blot of ERK phosphorylation in SKBR3 cells; assay type: cell-based; details: for phosphorylation of ERK (in words): SKBR3 cell lysates, western blot
Description: as §1

SKBR3 cells = experiment: Inhibition of EGF-induced cell proliferation (CCK-8); assay type: cell-based; details: SKBR3, EGF 100 ng/mL
Description: SKBR3 cells were cultured in McCoy's 5A Medium (Gibco) medium containing 10% fetal bovine serum and 1% penicillin/streptomycin in an atmosphere of 5% CO2 at 37° C.
SKBR3 cells in good condition were seeded into a 96-well plate at a concentration of 1×10^3 cells/well in 100 μL of complete growth medium. After 24 hours of attachment at 37° C. and 5% CO2, medium was replaced by fresh serum reduced McCoy's 5A Medium and cell were serum-starved overnight. Then serum-reduced EGF (100 ng/mL) McCoy's 5A Medium in the presence of different concentration of M-3-6 and M-3-6-D was added to the cells in hexaplicate. After 72 h, the CCK-8 reagents were added according to the manufacturer's recommendations.

HER2 = molecular target: T2, HER2 (Homo sapiens, UniProt P04626); experiment: Fluorescence polarization (FP) binding assay; details: 50 nM FITC labeled AApeptide, HER2 0 to 2 μM in PBS
T2 construct: Fc (human IgG Fc); purchased Creative BioMart
T2 sequence (P04626 23-652): as above
Description: The FP experiment was performed by incubating 50 nM FITC labeled AApeptides with HER2 (0 to 2 μM) in PBS. Dissociation constants (Kd) was determined by plotting the fluorescence anisotropy values as a function of protein concentration, and the plots were fitted to the following equation. The Lst is the concentration of the AApeptides and the x stands for the concentration of the protein. The experiments were conducted in triplicates and repeated for three times. y=FPmin+(FPmax−FPmin)*(KD+Lst+x-sqrt((KD+Lst+x)^2−4*Lst*x))/(2*Lst)

P-AKT = experiment: Western blot of AKT phosphorylation in SKBR3 cells; assay type: cell-based
Description: as §1

EGFR = EGFR (Homo sapiens, UniProt P00533); experiment: Surface plasmon resonance (SPR) binding to EGFR (selectivity)
Sequence of EGFR (P00533 25-1210): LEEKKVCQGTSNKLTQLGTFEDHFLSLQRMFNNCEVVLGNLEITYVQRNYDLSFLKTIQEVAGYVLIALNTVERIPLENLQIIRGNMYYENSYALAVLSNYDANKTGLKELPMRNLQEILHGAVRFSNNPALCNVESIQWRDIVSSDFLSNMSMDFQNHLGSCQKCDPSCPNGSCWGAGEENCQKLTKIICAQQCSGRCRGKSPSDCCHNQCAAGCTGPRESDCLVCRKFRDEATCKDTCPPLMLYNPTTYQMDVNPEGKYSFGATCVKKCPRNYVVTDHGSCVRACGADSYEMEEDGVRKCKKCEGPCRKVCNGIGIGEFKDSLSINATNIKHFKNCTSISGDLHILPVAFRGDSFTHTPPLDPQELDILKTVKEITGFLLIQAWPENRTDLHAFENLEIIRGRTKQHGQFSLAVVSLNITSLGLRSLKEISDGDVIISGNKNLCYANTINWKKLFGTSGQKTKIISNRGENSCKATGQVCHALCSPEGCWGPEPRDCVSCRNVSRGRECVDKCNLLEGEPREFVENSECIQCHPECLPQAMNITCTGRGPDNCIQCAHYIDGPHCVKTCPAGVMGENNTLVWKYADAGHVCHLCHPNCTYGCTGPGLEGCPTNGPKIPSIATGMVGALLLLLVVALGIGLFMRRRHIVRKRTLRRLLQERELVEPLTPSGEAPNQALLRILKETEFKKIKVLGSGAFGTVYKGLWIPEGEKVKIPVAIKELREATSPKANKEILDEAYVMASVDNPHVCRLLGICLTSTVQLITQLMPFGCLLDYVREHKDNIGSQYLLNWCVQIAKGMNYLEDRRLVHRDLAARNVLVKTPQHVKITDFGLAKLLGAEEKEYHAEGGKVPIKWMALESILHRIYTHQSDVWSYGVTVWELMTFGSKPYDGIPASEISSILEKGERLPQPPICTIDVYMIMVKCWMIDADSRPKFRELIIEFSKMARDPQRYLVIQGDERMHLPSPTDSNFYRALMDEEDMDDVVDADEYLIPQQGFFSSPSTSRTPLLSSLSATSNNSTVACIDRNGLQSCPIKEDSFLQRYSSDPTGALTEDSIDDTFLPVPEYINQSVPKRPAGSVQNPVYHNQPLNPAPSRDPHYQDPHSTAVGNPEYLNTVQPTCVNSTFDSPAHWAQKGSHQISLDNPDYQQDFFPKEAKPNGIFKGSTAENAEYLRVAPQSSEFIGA
Description: Next, the binding affinity of both M-3-6 and M-3-6-D to HER2 ECD in vitro were measured by surface plasmon resonance (SPR) assay (FIG. 10 in supporting information). […]. In addition, EGFR, known as ERBB1, another member of the human epidermal growth factor receptor family was chosen to test the selectivity of M-3-6. […].
Binding kinetics of M-3-6 or M-3-6-D to HER2 was measured by surface plasmon resonance (OpenSPR, Nicoyalife). After HER2 was covalently coupled to the carboxyl sensor chips (Nicoyalife), M-3-6 or M-3-6-D in PBS running buffer (pH 7.4) was slowly flowed over the sensor chip for 5 min to allow interaction. The running buffer was then allowed to flow for 10 min to collect the dissociation data. After subtracting the background, the signal response vs. time curve was obtained, binding kinetic parameters were obtained by fitting the curve to a one-to-one binding model using Trace-Drawer (Nicoyalife) software.

[4] = 8 mg/kg i.p. every two days for two weeks

In the case of `COc1cc(CC(=O)N2CC(=O)N[C@@H](Cc3ccccc3)CN(C(=O)Cc3ccc4ccccc4c3)CC(=O)N[C@@H](CCCCN)CN(C(=O)Cc3ccc4c(c3)OCO4)CC(=O)N[C@@H](CCCCN)CN(CC(=O)N[C@@H](CCCCNC(=O)COCCOCCNC(=O)Cn3cc(COc4cc(OCc5cn(CC(=O)NCCOCCOCC(=O)NCCCC[C@H](NC(=O)CN6C[C@H](CCCCN)NC(=O)CN(C(=O)Cc7ccc8c(c7)OCO8)C[C@H](CCCCN)NC(=O)CN(C(=O)Cc7ccc8ccccc8c7)C[C@H](Cc7ccccc7)NC(=O)CN(C(=O)Cc7cc(OC)cc(OC)c7)C[C@H](CC(C)C)NC(=O)c7ccc(cc7)CSCCC6=O)C(N)=O)nn5)cc(C(=O)NCCNC(=O)OC(C)(C)C)c4)nn3)C(N)=O)C(=O)CCSCc3ccc(cc3)C(=O)N[C@@H](CC(C)C)C2)cc(OC)c1` [M-3-6-D], the “tumor volume / antitumor effect” value (SKBR3 tumor xenograft; [4]) is reported as “significantly inhibit the tumor growth; also recorded: significant antitumor effect”, the “tumor volume after the last drug injection on day 12” value (SKBR3 tumor xenograft) is reported as “significant reduction in tumor volume was still observed” and the “inhibition of HER2 phosphorylation (in words)” value (P-HER2 [1]) is reported as “even stronger inhibition of phosphorylation than M-3-6; also recorded: much more effective phosphorylation inhibition compared with M-3-6”. The “expression of P-HER2” value (P-HER2 [1]; SKBR3 cells, 4 h) was “almost complete blocked”, the “effect on body weight gain” value [2] was “ignorable effect on the body weight gain” and the “improvement of binding to HER2 compared with monomer M-3-6” value (HER2 ECD) was roughly 7 fold. For the same compound, the “phosphorylation level of HER2 in tumor sections” value (P-HER2 [3]) was “comparable efficiency with trastuzumab”, the “degradation by pronase monitored by HPLC” value (pronase) was “no detectable degradation” and the “phosphorylation of ERK (in words)” value (P-ERK) was “more pronounced effect on the suppression of P-ERK compared with P-AKT”. The “inhibition of EGF-induced proliferation (in words)” value (SKBR3 cells) was “inhibited EGF-induced proliferation significantly in a dose-dependent manner”.

For `COc1cc(CC(=O)N2CC(=O)N[C@@H](Cc3ccccc3)CN(C(=O)Cc3ccc4ccccc4c3)CC(=O)N[C@@H](CCCCN)CN(C(=O)Cc3ccc4c(c3)OCO4)CC(=O)N[C@@H](CCCCN)CN(CC(=O)NCCC(=O)NC(CCCCNC(=S)Nc3ccc(-c4c5ccc(=O)cc-5oc5cc(O)ccc45)c(C(=O)O)c3)C(N)=O)C(=O)CCSCc3ccc(cc3)C(=O)N[C@@H](CC(C)C)C2)cc(OC)c1` (some centres unmarked) [M-3-6-F], the Kd (HER2) was 0.28 µM and 0.278 µM.

For `COc1cc(CC(=O)N2CC(=O)N[C@@H](Cc3ccccc3)CN(C(=O)Cc3ccc4ccccc4c3)CC(=O)N[C@@H](CCCCN)CN(C(=O)Cc3ccc4c(c3)OCO4)CC(=O)N[C@@H](CCCCN)CN(CC(N)=O)C(=O)CCSCc3ccc(cc3)C(=O)N[C@@H](CC(C)C)C2)cc(OC)c1` [M-3-6], the “tumor volume / antitumor effect” value (SKBR3 tumor xenograft; [4]) was “no significant reduction in tumor volume”, the “tumor volume / antitumor effect” value (SKBR3 tumor xenograft; 32 mg/kg i.p. every two days for two weeks) was “much more improved antitumor effect” and the “tumor volume after the last drug injection on day 12” value (SKBR3 tumor xenograft) was “significant tumor growth”. For the same compound, the “inhibition of HER2 phosphorylation (in words)” value (P-HER2 [1]) was “dose-dependent inhibition of HER2 receptor phosphorylation”, the IC50 (P-HER2 [1]; SKBR3 cells, 0-30 μM, 4 h, read-out: IC50 inhibition of HER2 phosphorylation) was 12.9 µM and the “expression of P-HER2” value (P-HER2 [1]; SKBR3 cells, 4 h) was “relatively high”. For the same compound, the “effect on body weight gain” value [2] was “ignorable effect on the body weight gain”, the “phosphorylation of AKT (in words)” value (P-AKT; SKBR3 cell lysates, western blot) was “reduction in the phosphorylation of AKT and ERK” and the IC50 (P-AKT; SKBR3 cells, 4 h) was 16.9 µM. For the same compound, the “weaker binding to EGFR than to HER2” value (EGFR) was 10 fold, the “phosphorylation level of HER2 in tumor sections” value (P-HER2 [3]) was “modest inhibitory effect” and the “phosphorylation of ERK (in words)” value (P-ERK) was “reduction in the phosphorylation of AKT and ERK”. The IC50 (P-ERK; SKBR3 cells, 4 h) was 10.6 µM, the “inhibition of EGF-induced proliferation (in words)” value (SKBR3 cells) was “inhibited EGF-induced proliferation significantly in a dose-dependent manner” and the IC50 (SKBR3 cells; serum-reduced, 72 h, read-out: IC50 antiproliferative activity on EGF-stimulated cells) was 17.9 µM.
